# Assay results: patent US20250073358A1, “AROMATIC VINYL COMPOUND, METAL COMPLEX THEREOF, AND PREPARATION METHOD THEREFOR AND USE THEREOF” (SHANGHAI MAXINOVEL PHARMACEUTICALS CO., LTD., priority 2021, published 2025)
# Columns and labels:
# PD-1/PD-L1 = PD-1/PD-L1 (Homo sapiens (Human), UniProt Q9NZQ7); test: Homogenouse Time-Resolved Fluorescence (HTRF) binding assay, PD-1/PD-L1
# Protocol: Homogenouse Time-Resolved Fluorescence (HTRF) binding assay was used to detect the binding ability of the compound of the present disclosure to PD-1/PD-L1.
# The purchased kit (CisBio, #64CUS000C-1) contains reagents required for experiments such as PD-1, PD-L1, anti-tag1-Eu, Anti-tag2-XL665, Dilute Buffer, and Detection Buffer.
# • 1. The compound was configured with 100% DMSO into 10 concentrations with a concentration gradient of 3 times. • 2. The DMSO solution of the compound was added to Dilute Buffer solution, and the mixture was mixed well and transferred to a 96-well plate. • 3. PD-L1 was diluted with Dilute Buffer solution and then added to the above 96-well plate. • 4. PD-1 was diluted with Dilute Buffer solution and then added to the above 96-well plate, and incubated at room temperature for 30 minutes. • 5. One part of anti-tag1-Eu and one part of Anti-tag2-XL665 were added to Detection Buffer solution, and the mixture was mixed well and transferred to the above 96-well plate. • 6. The mixture in the 96-well plate was incubated at room temperature for 1 to 24 hours. • 7. The HTRF values were read with Envision.
# tumor = test: Inhibitory effect on tumor in tumor-bearing mice; type: in vivo, C57/BL6 mice; details: tail vein injection, 45 MBq per mouse, compared with the control group (PBS)
# From the text: • 1. Inhibitory effect of compound 78 on tumor • 1.1 Experimental animal information: tumor-bearing C57/BL6 mice; SPF grade; weight range: 17-20 g; Shanghai Qi'up Biomedical Technology Co., Ltd. • 1.2 Experimental process
# Ten tumor-bearing mice with tumor volumes of 10-100 mm^3 were systematically and randomly divided into 2 groups according to tumor size, with 5 mice in each group, corresponding to PBS and compound 78 respectively. After anesthesia with isoflurane, tumor-bearing mice were injected into the tail vein with compound 78 with 45 MBq (approximately 1.2 mCi) per mouse and a volume of 0.2 mL. After administration, the tumor size and weight of the animals were measured periodically, and the tumor growth curve was drawn to understand the inhibitory effect of the drug on tumor.
# PD-1/PD-L1, sequence (Q9NZQ7 19-238): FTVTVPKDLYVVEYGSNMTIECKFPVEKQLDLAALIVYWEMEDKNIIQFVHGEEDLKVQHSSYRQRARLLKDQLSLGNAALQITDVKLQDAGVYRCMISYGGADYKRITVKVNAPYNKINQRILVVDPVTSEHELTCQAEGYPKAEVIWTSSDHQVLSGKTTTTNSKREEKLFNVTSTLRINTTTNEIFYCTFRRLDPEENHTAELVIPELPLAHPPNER
Structure (SMILES),IC50 (PD-1/PD-L1),inhibition of tumor growth (tumor)
Cc1c(/C=C/c2cc(OCCOCCN3CCN(CC(=O)O)CCN(CC(=O)O)CCN(CC(=O)O)CC3)c(CN3CCCC[C@H]3C(=O)O)cc2C(F)(F)F)cccc1-c1ccccc1 [Compound 6],2.66 nM,very good therapeutic effects on inhibiting tumor growth
Cc1ccc(CCCC(=O)NCCCC[C@H](NC(=O)CN2CCN(CC(=O)O)CCN(CC(=O)O)CCN(CC(=O)O)CC2)C(=O)NCCCCOc2cc(/C=C/c3cccc(-c4ccccc4)c3C)c(C(F)(F)F)cc2CN2CCCC[C@H]2C(=O)O)cc1 [Compound 12],32.5 nM,very good therapeutic effects on inhibiting tumor growth
Cc1ccc(CCCC(=O)NCCCC[C@H](NC(=O)CN2CCN(CC(=O)O)CCN(CC(=O)O)CCN(CC(=O)O)CC2)C(=O)NCCOc2cc(/C=C/c3cccc(-c4ccccc4)c3C)c(C(F)(F)F)cc2CN2CCCC[C@H]2C(=O)O)cc1 [Compound 13],300 nM,very good therapeutic effects on inhibiting tumor growth
Cc1c(/C=C/c2cc(OCCNC(=O)C3CCC(CNC(=O)CN4CCN(CC(=O)O)CCN(CC(=O)O)CCN(CC(=O)O)CC4)CC3)c(CN3CCCC[C@H]3C(=O)O)cc2C(F)(F)F)cccc1-c1ccccc1 (some centres unmarked) [Compound 14],0.95 nM,very good therapeutic effects on inhibiting tumor growth
Cc1cc(CN2CCCC[C@H]2C(=O)O)c(OCCOC(=O)CN2CCN(CC(=O)[O-])CCN(CC(=O)[O-])CCN(CC(=O)[O-])CC2)cc1/C=C/c1cccc(-c2ccccc2)c1C#N.[Lu+3] [Compound 15],5.33 nM,very good therapeutic effects on inhibiting tumor growth
Cc1c(/C=C/c2cc(OCC3CCN(C(=O)CN4CCN(CC(=O)O)CCN(CC(=O)O)CCN(CC(=O)O)CC4)CC3)c(CN3CCCC[C@H]3C(=O)O)cc2C(F)(F)F)cccc1-c1ccccc1 [Compound 20],1.01 nM,very good therapeutic effects on inhibiting tumor growth
Cc1ccc(CCCC(=O)NCCCC[C@H](NC(=O)CN2CCN(CC(=O)O)CCN(CC(=O)O)CCN(CC(=O)O)CC2)C(=O)NCC2CCC(C(=O)NCCOc3cc(/C=C/c4cccc(-c5ccccc5)c4C)c(C(F)(F)F)cc3CN3CCCC[C@H]3C(=O)O)CC2)cc1 (some centres unmarked) [Compound 22],5.03 nM,very good therapeutic effects on inhibiting tumor growth
Cc1c(/C=C/c2cc(OCCCCCCNC(=O)CN3CCN(CC(=O)[O-])CCN(CC(=O)[O-])CCN(CC(=O)[O-])CC3)c(CN3CCCC[C@H]3C(=O)O)cc2C(F)(F)F)cccc1-c1ccccc1.[Lu+3] [Compound 24],0.785 nM,very good therapeutic effects on inhibiting tumor growth
Cc1ccc(CCCC(=O)NCCCC[C@H](NC(=O)CN2CCN(CC(=O)O)CCN(CC(=O)O)CCN(CC(=O)O)CC2)C(=O)NCCCCCCOc2cc(/C=C/c3cccc(-c4ccccc4)c3C)c(C(F)(F)F)cc2CN2CCCC[C@H]2C(=O)O)cc1 [Compound 26],33.2 nM,very good therapeutic effects on inhibiting tumor growth
Cc1ccc(CCCC(=O)NCCCC[C@H](NC(=O)CN2CCN(CC(=O)O)CCN(CC(=O)O)CCN(CC(=O)O)CC2)C(=O)NCCOCCOc2cc(/C=C/c3cccc(-c4ccccc4)c3C)c(C(F)(F)F)cc2CN2CCCC[C@H]2C(=O)O)cc1 [Compound 32],12.4 nM,very good therapeutic effects on inhibiting tumor growth
Cc1c(/C=C/c2cc(OCCNC(=O)C3CCN(C(=O)CN4CCN(CC(=O)O)CCN(CC(=O)O)CCN(CC(=O)O)CC4)CC3)c(CN3CCCC[C@H]3C(=O)O)cc2C(F)(F)F)cccc1-c1ccccc1 [Compound 38],1.13 nM,very good therapeutic effects on inhibiting tumor growth
N#Cc1c(-c2ccccc2)ccnc1/C=C/c1cc(OCC2CCN(C(=O)CN3CCN(CC(=O)[O-])CCN(CC(=O)[O-])CCN(CC(=O)[O-])CC3)CC2)c(CN2CCCC[C@H]2C(=O)O)cc1C(F)(F)F.[Lu+3] [Compound 44],,very good therapeutic effects on inhibiting tumor growth
N#Cc1c(-c2ccccc2)ccnc1/C=C/c1cc(OCC2CCN(C(=O)CN3CCN(CC(=O)O)CCN(CC(=O)O)CC3)CC2)c(CN2CCCC[C@H]2C(=O)O)cc1C(F)(F)F [Compound 59],5.47 nM,
Cc1c(/C=C/c2cc(OCCOCCN3CCN(CC(=O)O)CCN(CC(=O)O)CCN(CC(=O)O)CC3)c(CN3CCCC[C@@H]3C(=O)O)cc2C(F)(F)F)cccc1-c1ccccc1 [Compound 69],24.8 nM,
Cc1c(/C=C/c2cc(OCCOCCN3CCN(CC(=O)O)CCN(CC(=O)O)CCN(CC(=O)O)CC3)c(CN3CCCC[C@@H]3C(=O)O)cc2C(F)(F)F)cccc1-c1ccccc1 [Compound 70],47.7 nM,very good therapeutic effects on inhibiting tumor growth
Cc1cc(CN2CCCC[C@H]2C(=O)O)c(OCCCCCN2CCN(CC(=O)O)CCN(CC(=O)O)CCN(CC(=O)O)CC2)cc1/C=C/c1cccc(-c2ccccc2)c1C [Compound 71],13.2 nM,
Cc1cc(CN2CCCC[C@H]2C(=O)O)c(OCCCCCN2CCN(CC(=O)O)CCN(CC(=O)O)CCN(CC(=O)O)CC2)cc1/C=C/c1cccc(-c2ccccc2)c1C [Compound 72],112 nM,very good therapeutic effects on inhibiting tumor growth
Cc1cc(CN2CCCC[C@H]2C(=O)O)c(OCCOC(=O)CN2CCN(CC(=O)[O-])CCN(CC(=O)[O-])CCN(CC(=O)[O-])CC2)cc1/C=C/c1cccc(-c2ccccc2)c1C#N.[177Lu+3] [Compound 76],,very good therapeutic effects on inhibiting tumor growth
Cc1c(/C=C/c2cc(OCCOCCN3CCN(CC(=O)[O-])CCN(CC(=O)[O-])CCN(CC(=O)[O-])CC3)c(CN3CCCC[C@H]3C(=O)O)cc2C(F)(F)F)cccc1-c1ccccc1.[177Lu+3] [Compound 77],,very good therapeutic effects on inhibiting tumor growth
